How the values were obtained:
[1] = tested on: PC-3 prostate adenocarcinoma; assay: Inhibition of cell proliferation, 14C-thymidine incorporation, PC-3; format: cell-based; conditions: Homo sapiens
Procedure: (§1) The ability of a test compound to inhibit the proliferation of cell growth was determined by measuring incorporation of ^14C-labelled thymidine into newly synthesized DNA within the cells. This method was used on cell lines derived from carcinomas originating from several tissues such as HeLa cervical adenocarcinoma (American Type Culture Collection (ATCC), Virginia, Cat. #CCL-2), HCT-116 colon carcinoma (CCL-247), MDA-MB-231 (Xenogen Corp.), PC-3 prostate adenocarcinoma (ATCC CRL-1435) and A375 malignant melanoma (ATCC CRL-1619).
(§2) Using this method, the effect of a compound on cell growth of cells with many different phenotypes can be determined. Cells were trypsinized and counted and 3000–8000 cells were added to each well of a 96-well CytoStar tissue culture treated scintillating microplate (Amersham #RPNQ0160) in complete medium in a volume of 100 μl. Cells were incubated for 24 hours in complete medium at 37° C. in an atmosphere containing 5% CO2. 1 μL of test compound in 100% DMSO was then added to the wells of the plate. DMSO only was added to control wells. Cells were incubated for 24 more hours in complete medium at 37° C. in an atmosphere containing 5% CO2. […] The degree of methyl ^14C-thymidine incorporation was quantified on a Packard Top Count.

[2] = target: T1, Casein Kinase 1 (CK1 delta isoform) (Rattus norvegicus, UniProt Q06486); assay: Kinase selectivity assay Casein Kinase 1; format: biochemical
T1 construct: a truncation at amino acid 318 of the C-terminal portion of the rat CK1 delta isoform; purchased New England Biolabs 6030; host or cells: E. coli
T1 sequence (Q06486 1-317): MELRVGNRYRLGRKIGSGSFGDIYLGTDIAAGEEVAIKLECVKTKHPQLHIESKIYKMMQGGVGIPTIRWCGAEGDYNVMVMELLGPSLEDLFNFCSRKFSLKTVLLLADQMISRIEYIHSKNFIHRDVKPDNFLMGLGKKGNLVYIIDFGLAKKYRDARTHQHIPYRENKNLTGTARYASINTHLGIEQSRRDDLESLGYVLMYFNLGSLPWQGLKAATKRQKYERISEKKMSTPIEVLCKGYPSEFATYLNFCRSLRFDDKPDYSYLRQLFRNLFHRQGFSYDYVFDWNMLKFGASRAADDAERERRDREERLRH
Procedure: Assays to test compound inhibition of other kinases were preformed using methods that measure the amount of phosphorylation of a biotinylated peptide substrate. Biotinylated peptide substrates were selected from the literature as appropriate for the enzyme being evaluated. […] Assay conditions vary slightly for each protein kinase, for example, insulin receptor kinase requires 10 mM MnCl2 for activity and Calmodulin-dependent protein kinase requires calmodulin and 2 mM CaCl2. The reaction mixture was dispensed into the wells of a streptavidin coated Flashplate and 1 μL test compound in 100% DMSO was added to a 100 μL reaction volume resulting in a final concentration of 1% DMSO in the reaction. Enzyme was diluted in 50 mM Tris-HCl pH=8.0, 0.1% BSA and added to each well. The reaction was incubated for one hour at 30° C. in the presence of a test compound. After one hour the reaction mix was aspirated from the plate and the plate was washed with PBS containing 100 mM EDTA. The plate was read on a scintillation counter to determine ^33P-γ-ATP incorporated into the immobilized peptide substrate. Test compounds were assayed in duplicate at 8 concentrations (100 μM, 10 μM, 1 μM, 100 nM, 10 nM, 1 nM, 100 pM, 10 pM). A maximum and minimum signal for the assay was determined on each plate. […] Known inhibitor compounds appropriate for the kinase being assayed were also included on each plate. […]

MDA-MB-231 = assay: Inhibition of cell proliferation, 14C-thymidine incorporation, MDA-MB-231; format: cell-based; conditions: Homo sapiens
Procedure: as §1, §2

IC50 [1]: 259 nM | IC50 [2]: 115 nM | IC50 (MDA-MB-231): 330 nM
SMILES: OCCCNc1cncc(-c2ncnc(Nc3cccc(Cl)c3)n2)c1 [Compound 1, 3-((5-(4-((3-chlorophenyl)amino)-1,3,5-triazin-2-yl)-3-pyridinyl)amino)-1-propanol]

— patent US7205298B2, “Substituted triazine kinase inhibitors” (Janssen Pharmaceutica N.V., priority 2002, dated 2007)
